Source: ChEMBL document CHEMBL4011591, “Discovery and pharmacological evaluation of a novel series of adamantyl cyanoguanidines as P2X7 receptor antagonists” (Eur J Med Chem, 2017)
pIC50: −log10 of the molar value. The source made the active and inactive calls. The rule behind the calls is not given here.

Columns and labels:
P2X purinoceptor 7 [1] = target: T1, P2X purinoceptor 7 (Rattus norvegicus, UniProt Q64663); assay: Antagonist activity at rat P2X7 receptor expressed in 1321N1 cells assessed as inhibition of agonist-induced calcium flux pretreated for 3 mins followed by BzATP addition after 3 mins measured every 1 sec for 60 secs and at 5 secs interval throughout testing by Flou-4-AM dye based FLIPR assay; format: cell-based
T1 sequence (Q64663 whole entry): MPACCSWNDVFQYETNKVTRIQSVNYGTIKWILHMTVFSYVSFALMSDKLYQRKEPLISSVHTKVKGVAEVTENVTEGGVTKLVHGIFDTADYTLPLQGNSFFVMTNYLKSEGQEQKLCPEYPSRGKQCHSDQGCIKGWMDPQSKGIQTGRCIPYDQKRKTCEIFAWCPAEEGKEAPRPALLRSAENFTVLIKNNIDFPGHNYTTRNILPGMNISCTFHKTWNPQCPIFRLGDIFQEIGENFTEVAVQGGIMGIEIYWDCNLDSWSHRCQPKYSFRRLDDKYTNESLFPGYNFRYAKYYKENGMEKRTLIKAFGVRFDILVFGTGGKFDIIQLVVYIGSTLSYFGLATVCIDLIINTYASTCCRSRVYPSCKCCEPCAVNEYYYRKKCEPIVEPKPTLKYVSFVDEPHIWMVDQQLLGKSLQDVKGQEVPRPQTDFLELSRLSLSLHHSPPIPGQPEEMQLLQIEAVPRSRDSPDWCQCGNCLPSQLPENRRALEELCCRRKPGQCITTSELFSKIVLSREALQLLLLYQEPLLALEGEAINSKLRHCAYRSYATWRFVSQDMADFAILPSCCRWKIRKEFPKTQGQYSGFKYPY

P2X purinoceptor 7 [2] = target: T2, P2X purinoceptor 7 (Homo sapiens, UniProt Q99572); assay: Antagonist activity at P2X7 receptor in human THP1 cells assessed as inhibition of BzATP-induced YO-PRO-1 Iodide uptake measured every 30 secs for 1 hr by fluorescence assay; format: cell-based
T2 sequence (Q99572 whole entry): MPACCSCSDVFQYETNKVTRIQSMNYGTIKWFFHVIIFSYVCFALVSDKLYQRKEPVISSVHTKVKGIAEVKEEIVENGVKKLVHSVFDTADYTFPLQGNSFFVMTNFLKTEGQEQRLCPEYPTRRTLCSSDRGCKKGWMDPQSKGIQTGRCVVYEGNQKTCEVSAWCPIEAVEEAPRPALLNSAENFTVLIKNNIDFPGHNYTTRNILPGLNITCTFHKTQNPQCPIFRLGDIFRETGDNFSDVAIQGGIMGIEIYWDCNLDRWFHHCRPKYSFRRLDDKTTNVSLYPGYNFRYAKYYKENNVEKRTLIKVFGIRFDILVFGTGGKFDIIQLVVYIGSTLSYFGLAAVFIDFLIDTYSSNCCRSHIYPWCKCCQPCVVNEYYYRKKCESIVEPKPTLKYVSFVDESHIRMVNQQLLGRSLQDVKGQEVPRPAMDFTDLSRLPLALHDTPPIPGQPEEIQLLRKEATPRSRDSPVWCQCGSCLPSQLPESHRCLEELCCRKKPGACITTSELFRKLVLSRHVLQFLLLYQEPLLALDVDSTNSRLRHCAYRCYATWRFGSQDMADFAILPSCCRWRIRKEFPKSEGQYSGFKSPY

P2X purinoceptor 7 [3] = target: T2, P2X purinoceptor 7; assay: Antagonist activity at P2X7 receptor in LPS-stimulated human THP1 cells assessed as inhibition of LPS/BzATP-induced IL-1beta release preincubated for 30 mins followed by BzATP addition measured after 30 mins by ELISA
[4] = target: T3, P2X purinoceptor 7 (Homo sapiens) (UniProt Q99572); assay: Ratio of IC50 for P2X7 receptor in human THP1 cells assessed as inhibition of BzATP-induced YO-PRO-1 Iodide uptake to IC50 for P2X7 receptor in LPS-stimulated human THP1 cells assessed as inhibition of LPS/BzATP-induced IL-1beta release; format: cell-based
T3 sequence (whole entry): T2 sequence (Q99572 whole entry)

Mus musculus [5] = assay: Toxicity in Balb-C mouse assessed as behavior changes at 0.1 to 1 mg/kg, ip measured after 48 hrs; format: organism-based; settings: in vivo
Mus musculus [6] = assay: Anti-depressant like activity in wild-type Balb-C mouse assessed as reduction in duration of immobility at 1 mg/kg, ip administered 15 to 30 mins prior to the testing measured on day 3 post dose by force swim test; format: functional, organism-based
[7] = Plasma concentration in Balb-C mouse at 2 mg/kg, iv administered as bolus dose measured after 5.8 mins by LC-MS analysis; format: ADME, organism-based
[8] = Plasma concentration in Balb-C mouse at 2 mg/kg, iv administered as bolus dose measured after 6 mins by LC-MS analysis; format: ADME, organism-based
[9] = Plasma concentration in Balb-C mouse at 2 mg/kg, iv administered as bolus dose measured after 2.5 mins by LC-MS analysis; format: ADME, organism-based
[10] = Plasma concentration in Balb-C mouse at 2 mg/kg, iv administered as bolus dose measured after 2.2 mins by LC-MS analysis; format: ADME, organism-based
[11] = Plasma concentration in Balb-C mouse at 2 mg/kg, iv administered as bolus dose measured after 10 mins by LC-MS analysis; format: ADME, organism-based
[12] = Plasma concentration in Balb-C mouse at 2 mg/kg, iv administered as bolus dose measured after 10.1 mins by LC-MS analysis; format: ADME, organism-based
[13] = Plasma concentration in Balb-C mouse at 2 mg/kg, iv administered as bolus dose measured after 15 mins by LC-MS analysis; format: ADME, organism-based
[14] = Plasma concentration in Balb-C mouse at 2 mg/kg, iv administered as bolus dose measured after 23 mins by LC-MS analysis; format: ADME, organism-based
[15] = Plasma concentration in Balb-C mouse at 2 mg/kg, iv administered as bolus dose measured after 37 mins by LC-MS analysis; format: ADME, organism-based
[16] = Plasma concentration in Balb-C mouse at 2 mg/kg, iv administered as bolus dose measured after 39 mins by LC-MS analysis; format: ADME, organism-based
[17] = Plasma concentration in Balb-C mouse at 2 mg/kg, iv administered as bolus dose measured after 58 mins by LC-MS analysis; format: ADME, organism-based
[18] = Plasma concentration in Balb-C mouse at 2 mg/kg, iv administered as bolus dose measured after 63 mins by LC-MS analysis; format: ADME, organism-based
[19] = Plasma concentration in Balb-C mouse at 2 mg/kg, iv administered as bolus dose measured after 76 mins by LC-MS analysis; format: ADME, organism-based
[20] = Plasma concentration in Balb-C mouse at 10 mg/kg, po measured after 21 mins by LC-MS analysis; format: ADME, organism-based
[21] = Plasma concentration in Balb-C mouse at 10 mg/kg, po measured after 30 mins by LC-MS analysis; format: ADME, organism-based
[22] = Plasma concentration in Balb-C mouse at 10 mg/kg, po measured after 33 mins by LC-MS analysis; format: ADME, organism-based
[23] = Plasma concentration in Balb-C mouse at 10 mg/kg, po measured after 62 mins by LC-MS analysis; format: ADME, organism-based
[24] = Cmax in Balb-C mouse at 2 mg/kg, iv administered as bolus dose by LC-MS method; format: ADME, organism-based; parameters: dose 2 mg/kg, route intravenous; settings: in vivo
[25] = Tmax in Balb-C mouse at 2 mg/kg, iv administered as bolus dose by LC-MS method; format: ADME, organism-based; settings: in vivo
[26] = Half life in Balb-C mouse at 2 mg/kg, iv administered as bolus dose by LC-MS method; format: ADME, organism-based; settings: in vivo
[27] = AUC (0 to infinity) in Balb-C mouse at 2 mg/kg, iv administered as bolus dose by LC-MS method; format: ADME, organism-based; parameters: dose 2 mg/kg, time infinity, route intravenous; settings: in vivo
[28] = MRT (0 to infinity) in Balb-C mouse at 2 mg/kg, iv administered as bolus dose by LC-MS method; format: ADME, organism-based; settings: in vivo
[29] = Clearance in Balb-C mouse at 2 mg/kg, iv administered as bolus dose by LC-MS method; format: ADME, organism-based; settings: in vivo
[30] = Volume of distribution in Balb-C mouse at 2 mg/kg, iv administered as bolus dose by LC-MS method; format: ADME, organism-based; settings: in vivo
[31] = Terminal elimination rate constant in Balb-C mouse at 2 mg/kg, iv administered as bolus dose by LC-MS method; format: ADME, organism-based; settings: in vivo, read-out: LZ (converted)
[32] = AUC (0 to t) in Balb-C mouse at 2 mg/kg, iv administered as bolus dose by LC-MS method; format: ADME, organism-based; settings: in vivo
Mus musculus [33] = assay: Toxicity in Balb-C mouse assessed as abnormal behavior at 0.1 to 1 mg/kg, ip measured after 30 mins; format: organism-based; settings: in vivo, 0.5 h
Mus musculus [34] = assay: Toxicity in Balb-C mouse assessed as psychological changes at 0.1 to 1 mg/kg, ip measured after 48 hrs; format: organism-based; settings: in vivo
[35] = Solubility of the compound in 8% ethanol/8% polysorbate80/84% saline formulation; format: physicochemical; settings: buffer
[36] = Cmax in Balb-C mouse at 1 mg/kg, iv administered as bolus dose by LC-MS method; format: ADME, organism-based; parameters: dose 1 mg/kg, route intravenous; settings: in vivo
[37] = Tmax in Balb-C mouse at 1 mg/kg, iv administered as bolus dose by LC-MS method; format: ADME, organism-based; settings: in vivo
Rattus norvegicus = assay: Intrinsic clearance in iv dosed rat; format: ADME, organism-based; settings: in vivo
[38] = Half life in iv dosed rat; format: ADME, organism-based; settings: in vivo

In the case of `C[C@H](N/C(=N/C#N)Nc1cccc2ncccc12)c1ccccc1`, the pIC50 (P2X purinoceptor 7 [1]) was 7.96 to 8.05.

Compound `N#C/N=C(/NCc1ccccn1)NCC12CC3CC(CC(C3)C1)C2` has a pIC50 (P2X purinoceptor 7 [2]) of 6.63, a pIC50 (P2X purinoceptor 7 [3]) of 6.86 and a Ratio IC50 [4] of 1.7.

In the case of `N#C/N=C(/NCc1ccccc1)NCC12CC3CC(CC(C3)C1)C2`, the pIC50 (P2X purinoceptor 7 [2]) was 6.39, the pIC50 (P2X purinoceptor 7 [3]) was 7.10 and the Ratio IC50 [4] was 5.2.

With `N#C/N=C(/Nc1ccccc1)NC12CC3CC(CC(C3)C1)C2` the pIC50 (P2X purinoceptor 7 [2]) was 5.61.

With `COc1ccc(CN/C(=N/C#N)NCC23CC4CC(CC(C4)C2)C3)cc1` the pIC50 (P2X purinoceptor 7 [2]) was < 5.00.

Compound `N#C/N=C(\NCC12CC3CC(CC(C3)C1)C2)Nc1ccc(F)cc1` has a pIC50 (P2X purinoceptor 7 [2]) of 6.76.

Work on `N#C/N=C(\NCC12CC3CC(CC(C3)C1)C2)Nc1ccccc1` yielded a pIC50 (P2X purinoceptor 7 [2]) of 7.00.

Compound `N#C/N=C(\NCC12CC3CC(CC(C3)C1)C2)Nc1ccccc1F` has a pIC50 (P2X purinoceptor 7 [2]) of 7.24.

In the case of `N#C/N=C(/NCc1cccnc1)NCC12CC3CC(CC(C3)C1)C2`, the Activity (Mus musculus [5]) was “Non-Toxic”, the Activity (Mus musculus [6]) was “Active” and the pIC50 (P2X purinoceptor 7 [2]) was 7.16. It also gave a pIC50 (P2X purinoceptor 7 [3]) of 7.40, a Ratio IC50 [4] of 1.7 and a concentration at 348 s [7] of 523 ng/mL. It also gave a concentration at 0.1 h [8] of 766 ng/mL, a concentration at 2.5 min [9] of 1180 ng/mL and a concentration at 132 s [10] of 687 ng/mL. For the same compound, the concentration at 10 min [11] was 365 ng/mL, the concentration at 0.168333 h [12] was 332 ng/mL and the concentration at 0.25 h [13] was 461 ng/mL. The concentration at 23 min [14] was 220 ng/mL, the concentration at 37 min [15] was 123 ng/mL and the concentration at 0.65 h [16] was 160 ng/mL. For the same compound, the concentration at 58 min [17] was 52 ng/mL, the concentration at 1.05 h [18] was 31 ng/mL and the concentration at 76 min [19] was 12 ng/mL. The concentration at 0.35 h [20] was 44 ng/mL, the concentration at 0.5 h [21] was 39 ng/mL and the concentration at 0.55 h [22] was 23 ng/mL. The concentration at 62 min [23] was 5.8 ng/mL, the Cmax [24] was 3650 nM and the Tmax [25] was 2.5 min. The half-life [26] was 13.2 min, the AUC(0-inf) [27] was 0.88 µM·h and the MRT inf [28] was 18.6 min. For the same compound, the clearance [29] was 117 mL/min/kg, the Vd [30] was 2.2 L/kg and the k el [31] was 0.000886 s⁻¹. The AUC(0-t) [32] was 0.87 µM·h, the Activity (Mus musculus [33]) was “Non-Toxic” and the Activity (Mus musculus [34]) was “Non-Toxic”. The solubility [35] was “Insoluble”, the Cmax [36] was 912 nM and the Tmax [37] was 20 to 30 min.

`COc1ccccc1CN/C(=N/C#N)NCC12CC3CC(CC(C3)C1)C2` gave a pIC50 (P2X purinoceptor 7 [2]) of 6.25.

In the case of `N#C/N=C(\NCCC12CC3CC(CC(C3)C1)C2)Nc1ccccc1`, the pIC50 (P2X purinoceptor 7 [2]) was < 5.00.

`N#C/N=C(\NCC12CC3CC(CC(C3)C1)C2)Nc1cccc2ncccc12` gave a pIC50 (P2X purinoceptor 7 [2]) of 7.74, a pIC50 (P2X purinoceptor 7 [3]) of 8.70 and a Ratio IC50 [4] of 9.

In the case of `N#C/N=C(/NCc1ccccc1)NC12CC3CC(CC(C3)C1)C2`, the pIC50 (P2X purinoceptor 7 [2]) was < 5.00.

Compound `O=C(CC12CC3CC(CC(C3)C1)C2)Nc1ccc2[nH]ncc2c1` has a CL (Rattus norvegicus) of 47 mL/min/kg and a half-life [38] of 60 min.
